These results are taken from PMC11633381 (mBio, 2024).

In general, IC50 refers to the concentration that inhibits the measured activity by half. Higher therefore signals weaker potency in that assay.

The target in test [1] is T1, BoSusA (BoGH13BSus) (Bacteroides ovatus, UniProt A0ABU3INP3, D331N).
T1 construct: gene RO706_06385; cloned starting with A90 (A23 in SusA numbering)
Briefly: isothermal titration calorimetry. Format: binding. In general terms: Isothermal titration calorimetry measures the heat released or taken up as one component is titrated into another.

The target in test [2] is T2, SusA (Bacteroides thetaiotaomicron, UniProt Q8A1G0, D331N).
T2 construct: cloned starting with T23
In words: isothermal titration calorimetry. Format: binding.

Test [3] addresses T3, BoSusB (BoGH97CSus) (Bacteroides ovatus, UniProt A0AAN3A6N4).
T3 construct: gene BACOVA_03519; N-terminal 6x His tag, recombinant
Briefly: co-crystal structure; competitive inhibition kinetics with pNP-Glc. Format: biochemical.

Test [4] addresses T4, SusA (Bacteroides thetaiotaomicron, UniProt Q8A1G0).
T4 construct: cloned starting with T23
Briefly: inhibition kinetics with pNP-G6 (αKi); also ITC binding to free enzyme. Format: biochemical.

Test [5] has as its target T5, BoSusG (BoGH13ASus) (Bacteroides ovatus, UniProt A0ABU3ISA0).
T5 construct: gene RO706_06355
Briefly: EnzChek fluorescent starch amylase assay. Format: biochemical.

Test [6] addresses T6, BoSusA (BoGH13BSus) (Bacteroides ovatus, UniProt A0ABU3INP3).
T6 construct: gene RO706_06385; cloned starting with A90 (A23 in SusA numbering)
In words: inhibition kinetics with pNP-G6 (αKi); also ITC binding to free enzyme. As to conditions: read-out: Inhibition constant. Format: biochemical.

Test [7] concerns the target T7, BtGH97H (Bacteroides thetaiotaomicron, UniProt Q89YZ9).
T7 construct: gene BT_4581; N-terminal 6x His tag, recombinant
Briefly: competitive inhibition kinetics with pNP-Glc. Format: biochemical.

Test [8] has as its target T8, BoGH97D (Bacteroides ovatus, UniProt A0ABU3IP51).
T8 construct: gene RO706_07160; N-terminal 6x His tag, recombinant
Briefly: competitive inhibition kinetics with pNP-Glc. Format: biochemical.

With `C[C@H]1O[C@H](O[C@H]2[C@H](O)[C@@H](O)[C@@H](O[C@H]3[C@H](O)[C@@H](O)C(O)O[C@@H]3CO)O[C@@H]2CO)[C@H](O)[C@@H](O)[C@@H]1N[C@H]1C=C(CO)[C@@H](O)[C@H](O)[C@H]1O` (some centres unmarked) [acarbose], the isothermal titration calorimetry entry in test [1] is “Wild-type enzyme has two acarbose-binding sites, whereas a catalytically inert variant of each enzyme (D331N) has one”; in test [2], “Wild-type enzyme has two acarbose-binding sites, whereas a catalytically inert variant of each enzyme (D331N) has one”. Also, the Ki in test [3] turned out to be 69.3 ± 8.9 nM; in test [4], 94.7 ± 6.9 nM; in test [6] it was 123 ± 9.2 nM; in test [7], 162 ± 24.3 nM; in test [8] it was 134 ± 22.4 nM. Further, the IC50 in test [5] came to 2200 ± 350 nM.
